Experimental findings from patent US20130039956A1, “USE OF NITROCARBOXYLIC ACIDS FOR THE TREATMENT, DIAGNOSIS AND PROPHYLAXIS OF AGGRESSIVE HEALING PATTERNS” (priority 2010, published 2013) are described below.

In experiment [1] the test system is canine cutaneous mastocytoma cells. Description: Toxin response of mast cells (mastoparan, Streptolysin O, UVB). In kind it is cell-based. The note with it: preincubation 10 and 100 μmol, compared with native FA. How it is done: In order to determine membrane stabilizing and anticytotoxic properties of nitrated fatty acids, an in vitro model utilizing canine cutaneous mastocytoma cells was chosen. Cells were cultured according to standard procedure. Cytotoxic effects were quantified by measuring not only by Ca^2+ influx, histamine, and TNFα release, but also by using the MTT assay. Cell suspensions were incubated with 0.9% saline, one of the nitrocarboxylic acids as listed in table 1 or the respective native fatty acid as to achieve a final concentration of 10 and 100 μmol which was given to the medium 15 min before toxin application.
Mastoparan suspended in a buffer solution was added to the preincubated mast cell suspensions to achieve a final concentration of 10 or 30 μmol, respectively. Measurements were performed after 1 hour incubation time. […] Preincubation of mast cells with nitrated fatty acids reduced the effects on Ca^2+ influx, histamine release, and apoptosis induction in a dose-dependent manner, with an almost complete absence of apoptosis at a concentration of 100 μmol.
Streptolysin O was given to preincubated suspensions to achieve a final concentration of 500 ng/ml. Measurements were performed after 2 hours. Releases of histamine and TNFα in the suspensions were measured. After saline preincubation, a significant release of histamine and TNFα was observed.
Cell plates were exposed to a single dose (250 mJ/cm2) of UVB using a lamp (Saalmann, Herford, Germany) emitting most of its energy within the UVB range (295 to 315 nm). Tryptase levels in the supernatants were determined after 30 minutes, and concentrations of TNFα after 60 minutes. After preincubation with saline, there was a marked increase of tryptase. Preincubation with native fatty acids led to a dose-dependent reduction of tryptase release, which was significant at the lower irradiation dose but not after exposure to a high irradiation dose. […] For all nitrated fatty acids that were used the results were mostly inside the same range. Relative differences can be represented as follows: […]

In experiment [2] the test system is human umbellical endothelial cells (HUVEC). Description: Adhesion, propagation and growth of endothelial cells on coated polystyrene films. Also: key: 0: not superior to native FA (control); +: Superior to native FA; ++: superior to both; +++: outstanding effect. The note with it: days 3, 7, 14, compared with native FA. In kind it is cell-based. The procedure:
Polystyrene scaffolds were prepared and pretreated in the same manner as performed in example 1 by using the same nitrocarboxylic acids as listed in table 1. The film samples were placed in a culture dish containing a gel matrix, in which human umbellical endothelial cells (HUVEC) had been allowed to grow to confluence. The culture medium consisted of 5% FCS, which was replaced every 5 days. Cultivation was performed according to standard conditions. Films were evaluated at days 3, 7, and 14 after careful extraction from the culture dishes, rinsing with saline solution, and staining with methylene blue. Using a reflected light microscope, the films were immediately examined to evaluate the following: Propagation of cells to the film center, cell confluidity, multilayer formation, and cell shape.

For experiment [3], the system named is Murine macrophage-like cells RAW 264.7 and murine L929 fibroblasts. In words: Monocyte/fibroblast co-culture on coated surgical suture material. Also: key: 0: not superior to native FA (control); +: Superior to native FA; ++: superior to both; +++: outstanding effect. In kind it is cell-based. The following applies: dip-coated suture material, 24 and 48 hours; compared with native FA. The text has this: In order to determine immunoreactions to foreign material and its consequence on fibrogenesis, co-cultures of fibroblasts and monocytes were used. Commercially available suture materials (propylene, polyamide, and silk) were dip-coated with corresponding native and nitrated fatty acids. Untreated suture material served as control. Treated and untreated suture materials were out in small pieces and placed in a 96-well plate.
Murine macrophage-like cells RAW 264.7 and murine L929 fibroblasts were cultured to a population density of 5×10(5) each. Cell suspensions were merged achieving a cellularity of approximately 2.5×10(5) cell/ml of each cell population which were added to the wells. The suture material samples were fully covered by the suspension. Wells were continuously and gently shaken throughout the incubation period.
Supernatants were collected for assays after 24 and 48 hours and analyzed for profibrotic cytokines IL-13, IL-4, and IL-6, TGF-β1, collagen I.

Experiment [4] deals with Cardiomyocytes. Description: TGF-β1-inducible formation of extracellular matrix in cardiomyocytes under shear stress. Also: key: 0: not superior to native FA (control); +: Superior to native FA; ++: superior to both; +++: outstanding effect. In kind it is cell-based. The note with it: 10-100 μmol, shear stress up to 100 dyn/cm^2; compared with native FA. How it is done: Characterizing features of the fibrous remodelling in the heart are accentuated expression and deposition of extracellular matrix proteins (ECM). This has been attributed to increased mechanical forces via autocrine release of transforming growth factor-beta (TGF-beta). […] An established cell culture model was used to investigate the effect of shear stress on cardiomyocytes. Cardiomyocytes were cultured and transferred to a matrigel substrate. Plates with confluenced cells were placed into a shear force injury device (SFID). The SFID design is based on a cone-and-plate construction which is a well-defined rheological model in which a homogenously distributed laminar flow over the surface of the cells is generated by a rotating cone. The conical surface is positioned above a stationary flat plate and the fluid medium between these two surfaces is set in motion by rotating the cone to create a uniform level of fluid shear stress throughout the entire surface of the cells cultured on the coverslips.
A peak shear stress of 100 dyn/cm^2 could be applied without significant cell detachment enabling a maximum injury severity of 46%. Cells were exposed to FCS 1% without or with nitro-fatty acid, and the corresponding native fatty acid in a dosage range between 10 μmol and 100 μmol, 10 seconds before shear force application. Shear force peaks up to 100 dyn/cm^2 with a duration of 30 msec each with a repetition frequency of 60/minute were applied for 5, 10, 30 and 60 minutes. Thereafter the cell plates were washed and placed in FCS 1% for 24 hrs. The supernatant of the shear force investigation as well as that of the following culture phase was analysed. It could be shown that TGF-beta and ECM proteins (collagen I, fibronectin, laminin, elastin) increased after treatment in the control groups.

Experiment [5] has as its system adult rats. In words: Fibrogenesis after traumatic and thermal tissue damage in dermal wound healing in vivo. Also: key: 0: not superior to native FA (control); +: Superior to native FA; ++: superior to both; +++: outstanding effect. On the set-up: species or system rat. The following applies: 100 micromol ethanolic solution on wound margins, 8 weeks, compared with native FA. From the text:
In order to determine the effects of nitrated fatty acids on fibrogenesis in response to traumatic and thermal tissue damage, an in vivo rat model was investigated. Paravertebral scalpel incision (two on each side) of approximately 1 cm in length and a depth of 1 mm were made in 12 anesthetized adult rats (150-200 g) of either sex after disinfection. Bleeding was stopped by manual compression. The entire length of the wound margins of one incision at each side were additionally cauterized using a 3-mm ball electrode connected to a DRE ASG-120 electrosurgical generator. Wound margins of one side were then covered with a sterile ethanolic 0.9% saline solution, or with a sterile ethanolic solution of the fatty acids (100 micromol), or with a sterile ethanolic solution of the nitrated fatty acids (100 micromol) using a sterile brush. A 1×10 mm cotton string that was bathed in the ethanolic solution containing 0.9% saline, native fatty acid or nitrated fatty acids was placed upon the incision site that had been closed by manual adaptation. The adaptation result and the cotton strings were fixed by an adhesive film. The animals were housed and fed according to institutional standards. The wound films were carefully removed after 2 weeks. Animals were euthanized after 8 weeks. The skin wounds were harvested, including the epidermis, dermis, and subcutaneous loose tissue with the surrounding normal tissue. The removed tissues were fixed in formalin and then embedded in paraffin. The cutting plane was vertical to the longitudinal axis of the former incisions. Slices (4-6 μm) were stained with H&E and Masson trichrome staining to evaluate the amount and density of collagen.

Regarding “5-nitro-eicosatrienoic acid [compound 4]”, the “Relative differences: effect on toxin response of mast cells” value (“Relative differences … of mast cells” below) in experiment [1] is given as “+”. For the same molecule, the “Relative differences: effect on adhesion, propagation and growth of endothelial cells” value (“Relative differences: effect on adhesion” for short) in experiment [2] is listed as “+”. Moreover, the “Relative effect on profibrotic cytokines and collagen I on suture material” value (shortened to “Relative effect … on suture material”) in experiment [3] is listed as “+”. In addition, the “Relative efficacy to suppress TGF-beta and ECM proteins in cardiomyocytes” value (“Relative efficacy” below) in experiment [4] is on record as “+”. Further, the “Relative effect on fibrogenesis (scar formation) in dermal wound healing” value (“Relative effect on fibrogenesis” for short) in experiment [5] is “+”.

Regarding 9,10-nitro-cis-oleic acid [compound 10], the “Relative differences … of mast cells” value in experiment [1] is recorded as “+++”. In experiment [2], the “Relative differences: effect on adhesion” value is on record as “++”. In addition, the “Relative effect … on suture material” value in experiment [3] is reported as “+++”. Moreover, the “Relative efficacy” value in experiment [4] is reported as “++”. In addition, the “Relative effect on fibrogenesis” value in experiment [5] is given as “++”.

With “9,10-nitro-trans-oleic acid [compound 15]”, the “Relative differences … of mast cells” value in experiment [1] is listed as “++”. The “Relative differences: effect on adhesion” value in experiment [2] is recorded as “+”. Moreover, the “Relative effect … on suture material” value in experiment [3] is given as “+”. Besides, the “Relative efficacy” value in experiment [4] is recorded as “+”. In addition, the “Relative effect on fibrogenesis” value in experiment [5] is on record as “+”.

Consider `CCCCCCCC/C=C(/CCCCCCCC(=O)O)[N+](=O)[O-]` [compound 1, 9-nitro cis-oleic acid], for which, in experiment [1], the “Relative differences … of mast cells” value is listed as “+++”. Further, the “Relative differences: effect on adhesion” value in experiment [2] was “++”. Moreover, the “Relative effect … on suture material” value in experiment [3] is “++”. Further, in experiment [4], the “Relative efficacy” value is reported as “++”. In experiment [5], the “Relative effect on fibrogenesis” value is “++”.

On to `CCCCC/C=C\C/C(=C\CCCCCCCC(=O)O)[N+](=O)[O-]` [compound 2, 10-nitro-cis-linoleic acid], for which the “Relative differences … of mast cells” value in experiment [1] was “++”. The “Relative differences: effect on adhesion” value in experiment [2] is “+++”. Moreover, the “Relative effect … on suture material” value in experiment [3] was “+++”. The “Relative efficacy” value in experiment [4] is listed as “++”. Further, the “Relative effect on fibrogenesis” value in experiment [5] was “+++”.

As for `CCCCCCCC/C(=C\CCCCCCCC(=O)O)[N+](=O)[O-]` [compound 12, 10-nitro-trans-oleic acid], in experiment [1], the “Relative differences … of mast cells” value is reported as “++”. The “Relative differences: effect on adhesion” value in experiment [2] is “+”. In experiment [3], the “Relative effect … on suture material” value is “+”. Also, the “Relative effect on fibrogenesis” value in experiment [5] turned out to be 0.

`CCCCCC/C=C(/CCCCCCCC(=O)O)[N+](=O)[O-]` [compound 13]: the “Relative differences: effect on adhesion” value in experiment [2] is listed as “++”. The “Relative effect … on suture material” value in experiment [3] was “+”. In experiment [5], the “Relative effect on fibrogenesis” value was “+”.

For `CCCCCC=CCC=C(CC=CCC=CCCCC(=O)O)[N+](=O)[O-]` [compound 14, 11-nitro-5,8,11,14-eicosatrienoic acid], the “Relative differences: effect on adhesion” value in experiment [2] is given as “+”. The “Relative effect … on suture material” value in experiment [3] is “+”. Also, the “Relative efficacy” value in experiment [4] is listed as “+”. Besides, the “Relative effect on fibrogenesis” value in experiment [5] is “+”.

As to `CCCCCC/C=C(\CCCCCCCC(=O)O)[N+](=O)[O-]` [compound 16, 9-nitro-9-trans-hexadecenoic acid], in experiment [1], the “Relative differences … of mast cells” value was “++”. In addition, the “Relative differences: effect on adhesion” value in experiment [2] is on record as “+”. Also, in experiment [3], the “Relative effect … on suture material” value was “+”. The “Relative effect on fibrogenesis” value in experiment [5] is given as “+”.

For the molecule `CCCCCCCC/C=C(/CCCCCCCCCCCC(=O)O)[N+](=O)[O-]` [compound 17, 13-nitro-cis-13-docosenoic acid], in experiment [1], the “Relative differences … of mast cells” value is listed as “+”. In experiment [2], the “Relative differences: effect on adhesion” value is 0. Further, the “Relative effect … on suture material” value in experiment [3] is on record as “+”. In experiment [5], the “Relative effect on fibrogenesis” value is “+”.

Turning to `CCCCC/C=C(/C/C=C\C/C=C(/C/C=C\CCCC(=O)O)[N+](=O)[O-])[N+](=O)[O-]` [compound 18, 8,14-nitro-cis-5,8,11,14-eicosatetraenoic acid], the “Relative differences … of mast cells” value in experiment [1] came out at 0. Also, the “Relative differences: effect on adhesion” value in experiment [2] is given as “+”. Besides, the “Relative effect … on suture material” value in experiment [3] was determined as 0. The “Relative effect on fibrogenesis” value in experiment [5] is given as “+”.

In the case of `CCC=CCC=C(CC=CCC=CCC=CCC=C(CCC(=O)O)[N+](=O)[O-])[N+](=O)[O-]` [compound 19, 4,16-nitro-docosahexaenoic acid], in experiment [1], the “Relative differences … of mast cells” value was determined as 0. Besides, the “Relative differences: effect on adhesion” value in experiment [2] is on record as “+”. In addition, the “Relative effect … on suture material” value in experiment [3] is given as “+”. In experiment [5], the “Relative effect on fibrogenesis” value is on record as “+”.

In the case of `CCCCCCCCCCC/C=C(/CCCCC(=O)O)[N+](=O)[O-]` [compound 21, 6-nitro-cis-6-octadecenoic acid], the “Relative differences: effect on adhesion” value in experiment [2] was 0. For the same molecule, in experiment [3], the “Relative effect … on suture material” value is on record as “+”. For the same molecule, the “Relative efficacy” value in experiment [4] is on record as “++”. In addition, in experiment [5], the “Relative effect on fibrogenesis” value is “++”.
